Among the data in publication PMC6792352, “Limited Chemical Structural Diversity Found to Modulate Thyroid Hormone Receptor in the Tox21 Chemical Library” (Environmental Health Perspectives, 2019) are CC50 values, retold here.

Where a name gives a salt, the structure may show the parent alone.

This data set is described as follows: in vitro. The following applies: rat, gh3-tre-luc cells.

One may read the CC50 as the concentration giving 50% cytotoxicity. A low value points to harm at low concentration. For the compound `C=C(Cl)CSC(=S)N(CC)CC` [Sulfallate], the CC50 at 24 h (AC50 (uM) modified / 1000, Tox21_110001=Tox21_200042, viability, 1 nM T3 present, 24 h) was above 100 µM. Turning to `CN(C)CC[C@@H](c1ccc(Cl)cc1)c1ccccn1` [Dexchlorpheniramine hydrochloride], the CC50 at 24 h (AC50 (uM) modified / 1000) was found to be 24.8 µM. Where the note is “AC50 (uM) modified / 1000”, `CC(=O)[C@H]1[C@H](C#N)C[C@H]2[C@@H]3CC=C4C[C@@H](O)CC[C@]4(C)[C@H]3CC[C@@]21C` [Pregnenolone carbonitrile] returned a cytotoxic concentration (CC50) at 24 h above 60 µM. Compound `O=C1NC2NC(=O)NC2N1` (stereo not drawn) [Glycoluril] registered a CC50 at 24 h (AC50 (uM) modified / 1000) above 90 µM. `N#CC(Br)Br` [Dibromoacetonitrile] had a CC50 at 24 h (AC50 (uM) modified / 1000, Tox21_110001=Tox21_202319, viability, 1 nM T3 present, 24 h) above 90 µM.

The compound `Nc1cccc2c1CN(C1CCC(=O)NC1=O)C2=O` (stereo not drawn) [Lenalidomide] registered a cytotoxic concentration (CC50) at 24 h (AC50 (uM) modified / 1000) above 50 µM. The same measure, in the same setting: as for `C=CC(C)(CCC=C(C)C)OC(=O)CC(C)C` (stereo not drawn) [Linalyl isovalerate], the figure is above 90 µM; as for `CN(C)CCCNCCCN(C)C` [N'-[3-(Dimethylamino)propyl]-N,N-dimethylpropane-1,3-diamine], above 90 µM.

For the setting “AC50 (uM) modified / 1000”, `CN(C)CCN(C)CCO` [2-{[2-(Dimethylamino)ethyl](methyl)amino}ethanol] came in with a CC50 at 24 h above 90 µM. On the same count and under the same terms, as for `COC(=O)c1ccccc1S(=O)(=O)NC(=O)N(C)c1nc(C)nc(OC)n1` [Tribenuron-methyl], the figure is above 100 µM.

As for `O=C(Nc1ccccc1-c1ccc(Cl)cc1)c1cccnc1Cl` [Boscalid], the half-maximal cytotoxic concentration (CC50) at 24 h (AC50 (uM) modified / 1000) is above 100 µM.

For `CCCOC(OCCC)OCCC` [Tripropyl orthoformate], the CC50 at 24 h (AC50 (uM) modified / 1000) is above 90 µM. Take `CC1=C(O)C(=O)OC1C` (stereo not drawn) [4,5-Dimethyl-3-hydroxy-2,5-dihydrofuran-2-one]: the CC50 at 24 h (AC50 (uM) modified / 1000) is above 90 µM. `CC(=O)N/N=C/c1ccc([N+](=O)[O-])o1` [Nihydrazone]: the CC50 at 24 h (AC50 (uM) modified / 1000) amounted to 17.4 µM. The same measure, in the same setting: as for `COc1cc2c(cc1OC)[C@@H](Cc1cc(OC)c(OC)c(OC)c1)[N+](C)(CCCOC(=O)CC/C=C/CCC(=O)OCCC[N+]1(C)CCc3cc(OC)c(OC)cc3[C@H]1Cc1cc(OC)c(OC)c(OC)c1)CC2` (stereo partly drawn) [Mivacurium chloride], the figure is above 50 µM. For `Cc1cc(-c2ccc(N)c(C)c2)ccc1N` [3,3'-Dimethylbenzidine], the CC50 at 24 h (AC50 (uM) modified / 1000, Tox21_110001=Tox21_201292, viability, 1 nM T3 present, 24 h) was above 90 µM. Take `Oc1cc(Cl)ccc1Cl` [2,5-Dichlorophenol]: the half-maximal cytotoxic concentration (CC50) at 24 h (AC50 (uM) modified / 1000) is above 90 µM. Same read-out and setting: as for `COc1cccc2c1cc([N+](=O)[O-])c1c(C(=O)O)cc3c(c12)OCO3` [Sodium aristolochate-I], the figure is 5.9 µM; as for `CCCCCCCCCCCCCCCCCC[n+]1ccn(C)c1` [1-Methyl-3-octadecylimidazolium hexafluorophosphate], 9.82 µM; as for `CC(C)c1nc(N(C)S(C)(=O)=O)nc(-c2ccc(F)cc2)c1/C=C/[C@@H](O)C[C@@H](O)CC(=O)O` [Rosuvastatin calcium], above 50 µM. `CCCCCCCCCCCCCC[n+]1ccc(C)cc1` [Miripirium chloride] returned a 50% cytotoxic concentration (CC50) at 24 h (AC50 (uM) modified / 1000) of 7.5 µM. Still for that read-out and setting: as for `O=P(O)(O)C(O)(Cc1cnc2ccccn12)P(=O)(O)O` [Minodronic acid], the figure is above 50 µM. `C1CCC(C(CC2CCCCN2)C2CCCCC2)CC1` (stereo not drawn) [Perhexiline maleate] registered a 50% cytotoxic concentration (CC50) at 24 h (AC50 (uM) modified / 1000) of 4.32 µM. With `Cc1nc2ccccc2c(=O)n1-c1ccccc1Cl` [Mecloqualone], the CC50 at 24 h (AC50 (uM) modified / 1000, Tox21_110001=Tox21_112870, viability, 1 nM T3 present, 24 h) was determined as 42.7 µM. For the compound `COc1ccc(C=O)cc1O` [3-Hydroxy-4-methoxy-benzaldehyde], the CC50 at 24 h (AC50 (uM) modified / 1000, Tox21_110001=Tox21_202858, viability, 1 nM T3 present, 24 h) was above 90 µM. `C=CCBr` [Allyl bromide]: the CC50 at 24 h (AC50 (uM) modified / 1000, Tox21_110001=Tox21_200801, viability, 1 nM T3 present, 24 h) is above 100 µM. For `CN(C)CCCSc1ccccc1NC(=O)/C=C/c1ccccc1` [Cinanserin], the CC50 at 24 h (AC50 (uM) modified / 1000) was determined as 22.6 µM. Take `CCC(C)c1cc([N+](=O)[O-])cc([N+](=O)[O-])c1O` (stereo not drawn) [Dinoseb]: the cytotoxic concentration (CC50) at 24 h is above 90 µM (AC50 (uM) modified / 1000, Tox21_110001=Tox21_201878, viability, 1 nM T3 present, 24 h) and 20.4 µM (AC50 (uM) modified / 1000, Tox21_110001=Tox21_300421, viability, 1 nM T3 present, 24 h).

Regarding `COC1CCC=CO1` (stereo not drawn) [3,4-Dihydro-2-methoxy-2H-pyran], the CC50 at 24 h (AC50 (uM) modified / 1000) was above 90 µM. Where the note is “AC50 (uM) modified / 1000”, `Cc1c(C)c2c(c(C)c1O)CC[C@@](C)(CCC[C@H](C)CCC[C@H](C)CCCC(C)C)O2` [alpha-Vitamin E] came in with a 50% cytotoxic concentration (CC50) at 24 h above 50 µM. The same measure, in the same setting: as for `CCOC(=O)OCC` [Diethyl carbonate], the figure is above 100 µM. The same measure, in the same setting: the value for `O=C(/C=C/c1ccccc1)NCCO` [Idrocilamide] was above 50 µM; that for `COc1cc(Cc2cnc(N)nc2N)cc(OC)c1OC` [Trimethoprim] was above 90 µM; that for `CSC(=O)c1cccc2nnsc12` [Acibenzolar-S-methyl] was above 90 µM. `CCC(C)(C)C1CCCCC1OC(C)=O` (stereo not drawn) [2-(2-Methylbutan-2-yl)cyclohexyl acetate]: the CC50 at 24 h (AC50 (uM) modified / 1000) was above 90 µM. For `CO[C@H]1O[C@H](CO)[C@@H](O)[C@H](O)[C@H]1O` [Methyl alpha-D-glucopyranoside], the CC50 at 24 h (AC50 (uM) modified / 1000) was above 90 µM.

On to `OCC1(O)OC[C@@H](O)[C@@H](O)[C@@H]1O` (stereo partly drawn) [D-Fructose], for which, where the note is “AC50 (uM) modified / 1000”, the half-maximal cytotoxic concentration (CC50) at 24 h is above 50 µM. With `C[C@H]1O[C@@H](O[C@H]2[C@@H](O)C[C@H](O[C@H]3[C@@H](O)C[C@H](O[C@H]4CC[C@@]5(C)[C@H](CC[C@@H]6[C@@H]5C[C@@H](O)[C@]5(C)[C@@H](C7=CC(=O)OC7)CC[C@]65O)C4)O[C@@H]3C)O[C@@H]2C)C[C@H](O)[C@@H]1O` [Digoxin], the CC50 at 24 h (AC50 (uM) modified / 1000) was above 90 µM.

Take `O=[N+]([O-])c1cccc(C(F)(F)F)c1` [1-Nitro-3-(trifluoromethyl)benzene]: under “AC50 (uM) modified / 1000”, the CC50 at 24 h is above 90 µM. On the same count and under the same terms, as for `CCC(=O)Nc1ccc(O)cc1` [Parapropamol], the figure is above 50 µM; as for `O=C(OCC1(COC(=O)c2cccnc2)CCCC(COC(=O)c2cccnc2)(COC(=O)c2cccnc2)C1O)c1cccnc1` [Nicomolol], above 50 µM. On the same count and under the same terms, the value for `CCCCc1ccc(Cl)cc1` [4-Butylchlorobenzene] was above 90 µM.

The compound `N#CCc1ccccc1` [Benzyl cyanide] had a 50% cytotoxic concentration (CC50) at 24 h (AC50 (uM) modified / 1000) above 90 µM. With `Cc1cccc(C(C)(C)C)c1O` [2-tert-Butyl-6-methylphenol], the CC50 at 24 h (AC50 (uM) modified / 1000) was above 90 µM. On the same count and under the same terms, the value for `C=CCOCC(CC)(CO)COCC=C` [2,2-Bis[(prop-2-en-1-yloxy)methyl]butan-1-ol] was above 90 µM; that for `c1ccc(-n2cnnn2)cc1` [1-Phenyl-1H-tetrazole] was above 50 µM; that for `C=CC1CO1` (stereo not drawn) [1,2-Epoxy-3-butene] was above 100 µM. Where the note is “AC50 (uM) modified / 1000, Tox21_110001=Tox21_301514, viability, 1 nM T3 present, 24 h”, `CCCCOC(=O)CCC(=O)OCCCC` [Dibutyl butanedioate] yielded a 50% cytotoxic concentration (CC50) at 24 h above 90 µM. Compound `O=C(O)c1cccc(C(=O)O)c1` [1,3-Benzenedicarboxylic acid] displayed a CC50 at 24 h (AC50 (uM) modified / 1000) above 90 µM. Turning to `COP(=S)(OC)Oc1cc(Cl)c(I)cc1Cl` [Iodenphos], the CC50 at 24 h (AC50 (uM) modified / 1000, Tox21_110001=Tox21_300910, viability, 1 nM T3 present, 24 h) is above 90 µM.

`CC(CO)Oc1ccccc1` (stereo not drawn) [2-Phenoxy-1-propanol] gave a CC50 at 24 h (AC50 (uM) modified / 1000) above 90 µM.

Regarding `NC(=O)c1ccccc1` [Benzamide], the CC50 at 24 h (AC50 (uM) modified / 1000) was above 90 µM.

Under “AC50 (uM) modified / 1000”, `NC(Cc1ccc(Cl)cc1)C(=O)O` (stereo not drawn) [Fenclonine] gave a CC50 at 24 h above 50 µM. Consider `CCON=O` [Ethyl nitrite], for which the CC50 at 24 h (AC50 (uM) modified / 1000, Tox21_110001=Tox21_112368, viability, 1 nM T3 present, 24 h) is above 50 µM. Compound `Cc1cc(NC(=O)C(=O)O)cc(C)c1Oc1ccc(O)c2c1CCC2` [CP-634384] returned a CC50 at 24 h (AC50 (uM) modified / 1000) above 90 µM. Still for that read-out and setting: as for `CCCOCCO` [2-Propoxyethanol], the figure is above 90 µM.

Compound `O=C(Oc1ccccc1)c1ccccc1O` [Phenyl salicylate] registered a half-maximal cytotoxic concentration (CC50) at 24 h (AC50 (uM) modified / 1000) above 50 µM. `C#C[C@]1(O)CC[C@H]2[C@@H]3CCC4=CC(=NO)CC[C@@H]4[C@H]3CC[C@@]21CC` [Norelgestromin] registered a half-maximal cytotoxic concentration (CC50) at 24 h (AC50 (uM) modified / 1000) of 35.1 µM. `CC(C)=CCC1C(=O)N(c2ccccc2)N(c2ccccc2)C1=O` [Feprazone]: under “AC50 (uM) modified / 1000”, it took 48.7 µM to reach half-maximal cytotoxicity (CC50 at 24 h). Still for that read-out and setting: the value for `OCC(CBr)(CBr)CBr` [3-Bromo-2,2-bis(bromomethyl)propanol] was above 90 µM; that for `CCCCCCCC(=O)OCC(O)CO` (stereo not drawn) [Glyceryl monooctanoate] was above 90 µM; that for `C=CCOc1c(Br)cc(Br)cc1Br` [1,3,5-Tribromo-2-(prop-2-en-1-yloxy)benzene] was above 90 µM. On the same count and under the same terms, the value for `CC(C)(C)C(=O)OCOP(=O)(COCCn1cnc2c(N)ncnc21)OCOC(=O)C(C)(C)C` [Adefovir dipivoxil] was above 50 µM; that for `CNC(=O)ON=CC(C)(C)[S+](C)[O-]` (stereo not drawn) [Aldicarb sulfoxide] was above 90 µM. With `CCCCCCCCS(=O)(=O)O` [Sodium 1-octanesulfonate], under “AC50 (uM) modified / 1000”, the CC50 at 24 h was above 90 µM. The same measure, in the same setting: the value for `CC(C)(c1ccc(Oc2ccc3c(c2)C(=O)OC3=O)cc1)c1ccc(Oc2ccc3c(c2)C(=O)OC3=O)cc1` [2,2-Bis(4-(3,4-dicarboxyphenoxy)phenyl)propane dianhydride] was above 90 µM; that for `CCC(COC(=O)c1cc(OC)c(OC)c(OC)c1)(c1ccccc1)N(C)C` (stereo not drawn) [Trimebutine maleate] was above 50 µM. In turn, `CCOP(=O)(OCC)OP(=O)(OCC)OCC` [Tetraethyl pyrophosphate] showed a CC50 at 24 h (AC50 (uM) modified / 1000, Tox21_110001=Tox21_301172, viability, 1 nM T3 present, 24 h) above 90 µM.
